In patent publication US7326732B2, “EP2 receptor agonists” (Pharmagene Laboratories Limited, priority 2004, dated 2008):

How the values were obtained:
[1] = target: T1, human EP2 receptor (Homo sapiens, UniProt P43116); experiment: Binding ability to human EP receptors ([3H]PGE2 displacement), EP2; conditions: membranes expressing human EP2; [3H]PGE2 3 nM; Cheng-Prusoff; read-out: pKi (M) EP2 (converted)
T1 construct: expressed in transfected cells
Summary of the method: (§1)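 Membranes from cells stably expressing human EP2, EP3 or EP4 incubated to equilibrium with [3H]PGE2 and compound at 0.1 to 10 000 nM. Non-specific binding defined with 10 uM PGE2; bound label separated by vacuum filtration and quantified by scintillation counting.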

[2] = target: T2, human EP2 prostanoid receptors (Homo sapiens, UniProt P43116); experiment: Agonist activity at recombinant human EP2 prostanoid receptors (cAMP in HEK-293 clones); type: cell-based; conditions: for EC50: HEK-293 stably transfected with human EP2, cAMP accumulation, read-out: pEC50 EP2 (converted); for activity (EP2 part): functional classification at EP2
T2 construct: expressed in transfected cells; host or cells: HEK-293

[3] = target: T3, human EP4 receptor (Homo sapiens, UniProt P35408); experiment: Binding ability to human EP receptors ([3H]PGE2 displacement), EP4; conditions: membranes expressing human EP4; [3H]PGE2 1 nM; Cheng-Prusoff; read-out: pKi (M) EP4 (converted)
T3 construct: expressed in transfected cells
Summary of the method: as §1

[4] = target: T4, human EP3 receptor (Homo sapiens, UniProt P43115); experiment: Binding ability to human EP receptors ([3H]PGE2 displacement), EP3; conditions: membranes expressing human EP3; [3H]PGE2 2.5 nM; Cheng-Prusoff; read-out: pKi (M) EP3 (converted)
T4 construct: expressed in transfected cells
T4 sequence (P43115 1-390): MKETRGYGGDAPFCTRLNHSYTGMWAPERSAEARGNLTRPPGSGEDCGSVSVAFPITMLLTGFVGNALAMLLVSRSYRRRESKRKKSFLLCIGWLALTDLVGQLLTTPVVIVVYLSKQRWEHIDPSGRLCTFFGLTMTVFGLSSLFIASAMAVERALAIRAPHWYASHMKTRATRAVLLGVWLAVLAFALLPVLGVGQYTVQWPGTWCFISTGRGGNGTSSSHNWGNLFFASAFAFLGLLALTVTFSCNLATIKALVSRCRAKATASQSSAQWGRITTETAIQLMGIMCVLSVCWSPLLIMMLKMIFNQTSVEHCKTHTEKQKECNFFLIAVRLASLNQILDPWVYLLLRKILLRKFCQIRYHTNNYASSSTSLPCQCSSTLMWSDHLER
Summary of the method: as §1

T3 sequence (P35408 whole entry): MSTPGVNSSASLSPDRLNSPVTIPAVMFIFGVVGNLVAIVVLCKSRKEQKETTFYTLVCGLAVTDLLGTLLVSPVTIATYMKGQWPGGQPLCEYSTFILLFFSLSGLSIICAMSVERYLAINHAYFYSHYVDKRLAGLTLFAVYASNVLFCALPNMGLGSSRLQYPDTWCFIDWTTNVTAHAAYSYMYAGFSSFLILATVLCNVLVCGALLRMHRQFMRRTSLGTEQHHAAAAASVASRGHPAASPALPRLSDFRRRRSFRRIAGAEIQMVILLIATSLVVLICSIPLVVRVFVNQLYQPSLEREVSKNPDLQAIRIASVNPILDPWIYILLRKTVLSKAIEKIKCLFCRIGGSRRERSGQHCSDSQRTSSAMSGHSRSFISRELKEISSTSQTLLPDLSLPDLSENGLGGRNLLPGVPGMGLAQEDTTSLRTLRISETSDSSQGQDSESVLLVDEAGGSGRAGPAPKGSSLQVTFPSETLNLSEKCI
T1 sequence (P43116 whole entry): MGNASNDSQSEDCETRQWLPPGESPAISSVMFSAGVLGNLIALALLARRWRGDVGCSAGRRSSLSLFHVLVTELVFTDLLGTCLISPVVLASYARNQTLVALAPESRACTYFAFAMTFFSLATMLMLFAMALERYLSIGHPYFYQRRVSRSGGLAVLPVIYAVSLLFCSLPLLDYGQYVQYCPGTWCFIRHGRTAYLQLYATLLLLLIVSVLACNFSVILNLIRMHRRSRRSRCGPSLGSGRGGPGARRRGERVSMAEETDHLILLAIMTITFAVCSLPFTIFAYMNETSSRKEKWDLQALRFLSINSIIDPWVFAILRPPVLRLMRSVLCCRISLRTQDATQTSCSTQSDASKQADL
T2 sequence (P43116 whole entry): as above

| Structure (SMILES) | Ki [1] | EC50 [2] | activity (EP2 part) [2] | Ki [3] | Ki [4] |
| --- | --- | --- | --- | --- | --- |
| O=C(O)CCc1cccc(NC(=O)c2ccc(-c3ccc(Cl)cc3)o2)c1 [Compound 147, 3-(3-{[5-(4-Chloro-phenyl)-furan-2-carbonyl]-amino}-phenyl)-propionic acid] | < 1e-07 M | < 100 nM | EP2 Agonist | > 1e-05 M | > 1e-05 M |
| O=C(O)COc1cccc(NC(=O)c2ccc(-c3ccc(Cl)cc3)o2)c1 [Compound 156, (3-{[5-(4-Chloro-phenyl)-furan-2-carbonyl]-amino}-phenoxy)-acetic acid] | < 1e-07 M | < 100 nM | EP2 Agonist | > 1e-05 M | > 1e-05 M |
| O=C(O)COc1cccc(NC(=O)c2ccc(-c3ccccc3)o2)c1 [Compound 160, {3-[(5-Phenyl-furan-2-carbonyl)-amino]-phenoxy}-acetic acid] | < 1e-07 M | < 100 nM | EP2 Agonist | > 1e-05 M | > 1e-05 M |
| O=C(O)CCc1cccc(NC(=O)c2ccc(-c3cccc(F)c3)o2)c1 [Compound 163, 3-(3-{[5-(3-Fluoro-phenyl)-furan-2-carbonyl]-amino}-phenyl)-propionic acid] | < 1e-07 M | < 100 nM | EP2 Agonist | > 1e-05 M | > 1e-05 M |
| O=C(O)COc1cccc(NC(=O)c2cc(-c3ccccc3)ccc2F)c1 [Compound 165] | < 1e-07 M | < 100 nM | EP2 Agonist | > 1e-05 M | > 1e-05 M |
| O=C(O)COc1cccc(NC(=O)c2ccc(-c3cccc(F)c3)o2)c1 [Compound 168, (3-{[5-(3-Fluoro-phenyl)-furan-2-carbonyl]-amino}-phenoxy)-acetic acid] | < 1e-07 M | < 100 nM | EP2 Agonist | > 1e-05 M | > 1e-05 M |
| O=C(O)COc1cccc(NC(=O)c2cc(-c3cccc(F)c3)ccc2F)c1 [Compound 169, {3-[(4,3′-Difluoro-biphenyl-3-carbonyl)-amino]-phenoxy}-acetic acid] | < 1e-07 M | < 100 nM | EP2 Agonist | > 1e-05 M | > 1e-05 M |
| O=C(O)COc1cccc(NC(=O)c2cc(-c3ccc(F)cc3)ccc2F)c1 [Compound 171, {3-[(4,4′-Difluoro-biphenyl-3-carbonyl)-amino]-phenoxy}-acetic acid] | < 1e-07 M | < 100 nM | EP2 Agonist | > 1e-05 M | > 1e-05 M |
| O=C(Nc1cccc(OCc2nnn[nH]2)c1)c1ccc(-c2ccccc2)o1 [Compound 173, 5-Phenyl-furan-2-carboxylic acid [3-(1H-tetrazol-5-ylmethoxy)-phenyl]-amide] | < 1e-06 M | < 100 nM | EP2 Agonist | > 1e-05 M | > 1e-05 M |
| O=C(Nc1cccc(-c2nnn[nH]2)c1)c1ccc(-c2ccccc2)o1 [Compound 177, 5-Phenyl-furan-2-carboxylic acid [3-(1H-tetrazol-5-yl)-phenyl]-amide] | < 1e-06 M | < 1000 nM | EP2 Agonist | > 1e-05 M | > 1e-05 M |

Next, values leading:

| Ki [1] | EC50 [2] | activity (EP2 part) [2] | Ki [3] | Ki [4] | Structure (SMILES) |
| --- | --- | --- | --- | --- | --- |
| < 1e-07 M | < 100 nM | EP2 Agonist | > 1e-05 M | > 1e-05 M | O=C(O)/C=C/c1cccc(NC(=O)c2ccc(-c3ccc(Cl)cc3)o2)c1 [Compound 146, 3-(3-{[5-(4-Chloro-phenyl)-furan-2-carbonyl]-amino}-phenyl)-acrylic acid] |
| < 1e-07 M | < 100 nM | EP2 Agonist | > 1e-05 M | > 1e-05 M | O=C(O)CCc1cccc(NC(=O)c2ccc(-c3ccc(F)cc3)o2)c1 [Compound 148, 3-(3-{[5-(4-Fluoro-phenyl)-furan-2-carbonyl]-amino}-phenyl)-propionic acid] |
| < 1e-06 M | < 1000 nM | EP2 Agonist | > 1e-05 M | > 1e-05 M | O=C(O)Cc1cccc(NC(=O)c2cccc(-c3ccc(Cl)cc3)n2)c1 [Compound 150, (3-{[6-(4-Chloro-phenyl)-pyridine-2-carbonyl]-amino}-phenyl)-acetic acid] |
| < 1e-07 M | < 100 nM | EP2 Agonist | > 1e-05 M | > 1e-05 M | O=C(O)/C=C/c1cccc(NC(=O)c2cccc(-c3ccc(Cl)cc3)n2)c1 [Compound 151, 3-(3-{[6-(4-Chloro-phenyl)-pyridine-2-carbonyl]-amino}-phenyl)-acrylic acid] |
| < 1e-07 M | < 100 nM | EP2 Agonist | > 1e-05 M | > 1e-05 M | O=C(O)Cc1cccc(NC(=O)c2cccc(-c3ccc(F)cc3)n2)c1 [Compound 153, (3-{[6-(4-Fluoro-phenyl)-pyridine-2-carbonyl]-amino}-phenyl)-acetic acid] |
| < 1e-07 M | < 100 nM | EP2 Agonist | > 1e-05 M | > 1e-05 M | O=C(O)COc1cccc(NC(=O)c2cccc(-c3ccc(Cl)cc3)n2)c1 [Compound 154, (3-{[6-(4-Chloro-phenyl)-pyridine-2-carbonyl]-amino}-phenoxy)-acetic acid] |
| < 1e-07 M | < 100 nM | EP2 Agonist | > 1e-05 M | > 1e-05 M | O=C(O)/C=C/c1cccc(NC(=O)c2cccc(-c3ccc(F)cc3)n2)c1 [Compound 155, 3-(3-{[6-(4-Fluoro-phenyl)-pyridine-2-carbonyl]-amino}-phenyl)-acrylic acid] |
| < 1e-07 M | < 100 nM | EP2 Agonist | > 1e-05 M | > 1e-05 M | O=C(O)COc1cccc(NC(=O)c2ccc(-c3ccc(F)cc3)o2)c1 [Compound 157, (3-{[5-(4-Fluoro-phenyl)-furan-2-carbonyl]-amino}-phenoxy)-acetic acid] |
| < 1e-07 M | < 100 nM | EP2 Agonist | < 1e-06 M | > 1e-05 M | O=C(O)COc1cccc(NC(=O)c2cccc(-c3ccc(F)cc3)n2)c1 [Compound 158, (3-{[6-(4-Fluoro-phenyl)-pyridine-2-carbonyl]-amino}-phenoxy)-acetic acid] |
| < 1e-07 M | < 100 nM | EP2 Agonist | > 1e-05 M | > 1e-05 M | O=C(O)CCc1cccc(NC(=O)c2cccc(-c3ccc(F)cc3)n2)c1 [Compound 159, 3-(3-{[6-(4-Fluoro-phenyl)-pyridine-2-carbonyl]amino}-phenyl)-propionic acid] |
| < 1e-07 M | < 100 nM | EP2 Agonist | > 1e-05 M | > 1e-05 M | O=C(O)CCc1cccc(NC(=O)c2cccc(-c3cccc(F)c3)n2)c1 [Compound 162, 3-(3-{[6-(3-Fluoro-phenyl)-pyridine-2-carbonyl]-amino}-phenyl)-propionic acid] |
| < 1e-06 M | < 100 nM | EP2 Agonist | > 1e-05 M | > 1e-05 M | O=C(O)CCc1cccc(NC(=O)c2cccc(-c3ccccc3)n2)c1 [Compound 164, 3-{3-[(6-Phenyl-pyridine-2-carbonyl)-amino]-phenyl}-propionic acid] |
| < 1e-07 M | < 100 nM | EP2 Agonist | < 1e-06 M | > 1e-05 M | O=C(O)COc1cccc(NC(=O)c2cccc(-c3cccc(F)c3)n2)c1 [Compound 170, (3-{[6-(3-Fluoro-phenyl)-pyridine-2-carbonyl]-amino}-phenoxy)-acetic acid] |
